Source: patent US20240287138A1, “CYCLIC PEPTIDES FOR INHIBITING TNF RECEPTOR 1 ACTIVITY” (Merck Sharp & Dohme LLC, priority 2023, published 2024)
pIC50, pKd: −log10 of the molar value. Numbered stars: 1 amine (or outer) side, 2 acyl side, 3 side chain; on linkers, the order of the positions; unused ones are H or OH. Bridge positions count the residues as written; N and C are the ends. Square brackets hold non-standard residues; d marks the D form. Peptide text beside a SMILES is read from it. Trp(βS-Me,7-OMe) = COc1cccc2c([C@H](C)[C@H](N)C(=O)O)c[nH]c12; X34 = O=C([C@H](Cc1c[nH]c2c(Cl)c(F)ccc12)N[*:1])[*:2]; Trp(7-Cl) = N[C@@H](Cc1c[nH]c2c(Cl)cccc12)C(=O)O; Phe(4-CONH2) = NC(=O)c1ccc(C[C@H](N)C(=O)O)cc1; Phe(4-COOH) = N[C@@H](Cc1ccc(C(=O)O)cc1)C(=O)O; X25 = O=C(O)c1ccc(C[C@H](N[*:1])C(=O)[*:2])cn1; Trp(7-aza) = N[C@@H](Cc1c[nH]c2ncccc12)C(=O)O; Pip(5R-OH) = O=C(O)[C@@H]1CC[C@@H](O)CN1; X1 = O=C([C@@H]1CC[C@H](N[*:1])C1)[*:2]; X14 = CC(C)CCC[C@H](N[*:1])C(=O)[*:2]; Pip(4-aza) = O=C(O)[C@@H]1CNCCN1; 4Pal = N[C@@H](Cc1ccncc1)C(=O)O; NMeE = CN[C@@H](CCC(=O)O)C(=O)O; dHyp = O=C(O)[C@H]1C[C@H](O)CN1; Ahp(2) = CCCCC[C@H](N)C(=O)O; αMeS = C[C@](N)(CO)C(=O)O; Nle = CCCC[C@H](N)C(=O)O; NEtG = CCNCC(=O)O; Sar = CNCC(=O)O

Experiments:
[1] = target: T1, human soluble TNFR1 (sTNFR1) (Homo sapiens, UniProt P19438); assay: Human sTNFR1-peptide displacement assay (LanthaScreen Eu TR-FRET binding assay)
T1 construct: made in house; host or cells: Sf21 (baculovirus)
T1 sequence (P19438 with tags, fused parts or gaps): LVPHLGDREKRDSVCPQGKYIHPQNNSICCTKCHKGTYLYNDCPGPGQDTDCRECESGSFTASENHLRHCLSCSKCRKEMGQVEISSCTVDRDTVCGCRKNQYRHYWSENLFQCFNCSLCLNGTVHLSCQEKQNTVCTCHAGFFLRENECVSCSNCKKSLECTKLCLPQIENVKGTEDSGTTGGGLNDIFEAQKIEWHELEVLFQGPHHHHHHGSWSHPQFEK
How it was run: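 Readout is the 665/615 nm TR-FRET ratio (Eu anti-His donor, streptavidin-Alexa647 acceptor), normalized to DMSO and saturating displacer, fit by Morrison-based five-parameter logistic for Kd^app. His-tagged sTNFR1 (1-211) prebound to 100 nM biotinylated peptide SEQ ID NO.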

[2] = target: T2, human TNFR1 extracellular domain (ECD) protein (Homo sapiens, UniProt P19438); assay: SPR binding affinity to captured human TNFR1 ECD
T2 construct: HRV 3C protease cleavage site (C); 6His (C, cleaved yes); made in house; host or cells: Sf21 insect cells (baculovirus), secreted
T2 sequence (P19438 30-211): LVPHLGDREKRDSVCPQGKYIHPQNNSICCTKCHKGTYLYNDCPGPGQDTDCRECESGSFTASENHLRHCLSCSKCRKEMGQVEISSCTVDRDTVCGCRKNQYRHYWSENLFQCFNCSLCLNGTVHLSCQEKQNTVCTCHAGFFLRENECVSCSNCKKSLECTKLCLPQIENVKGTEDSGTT
How it was run: (§1)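 Peptide binding kinetics read by SPR in HEPES pH 7.4 running buffer with 2% DMSO, with TNFR2 ECD tested in parallel for off-target binding. Receptor ECDs, insect-cell expressed and biotinylated at C-terminal avi-tag, were captured via streptavidin. KA derived from association and dissociation rate constants.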

human TNFR2 ECD protein = target: T3, human TNFR2 ECD protein (Homo sapiens, UniProt P20333); assay: SPR off-target binding (selectivity) to human TNFR2 ECD
T3 construct: HRV 3C protease cleavage site (C); 6His (C, cleaved yes); made in house; host or cells: Sf21 insect cells (baculovirus), secreted
T3 sequence (P20333 23-257): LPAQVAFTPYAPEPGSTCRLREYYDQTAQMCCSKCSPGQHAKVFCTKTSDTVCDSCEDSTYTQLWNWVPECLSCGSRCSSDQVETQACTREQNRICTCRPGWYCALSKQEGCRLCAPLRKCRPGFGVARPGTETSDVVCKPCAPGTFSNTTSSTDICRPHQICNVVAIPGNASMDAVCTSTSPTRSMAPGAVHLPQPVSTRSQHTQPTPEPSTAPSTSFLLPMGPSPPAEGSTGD
How it was run: as §1

[3] = target: T4, TNFα-induced NF-κB signal transduction pathway (TNFR1 signaling) in THP-1 cells (Homo sapiens, UniProt P19438); assay: THP-1 Lucia NF-κB reporter cell assay, inhibition of TNFα-induced NF-κB signaling; type: cell-based; conditions: THP-1 NF-κB Lucia reporter cells, 10 ng/mL TNFα, 16-18 h, secreted luciferase; read-out: THP-1 IC50
T4 sequence (P19438 30-455): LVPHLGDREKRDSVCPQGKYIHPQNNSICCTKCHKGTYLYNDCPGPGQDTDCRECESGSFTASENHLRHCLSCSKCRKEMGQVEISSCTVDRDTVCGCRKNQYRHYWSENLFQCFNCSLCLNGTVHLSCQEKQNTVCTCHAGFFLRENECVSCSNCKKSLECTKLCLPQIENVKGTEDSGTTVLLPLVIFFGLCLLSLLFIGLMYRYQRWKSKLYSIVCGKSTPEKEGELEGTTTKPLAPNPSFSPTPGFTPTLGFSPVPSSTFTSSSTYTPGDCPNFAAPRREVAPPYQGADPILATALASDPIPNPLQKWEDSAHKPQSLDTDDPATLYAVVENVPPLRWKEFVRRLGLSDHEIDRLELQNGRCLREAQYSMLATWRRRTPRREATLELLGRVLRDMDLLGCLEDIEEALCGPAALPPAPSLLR
How it was run: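 IC50 from a 4-parameter logistic fit of secreted luciferase luminescence (QUANTI-Luc), normalised to min/max controls. Reporter THP-1 cells were exposed to peptides for 1 h at 37 °C before 10 ng/mL TNFα (final) was added overnight (16–18 h).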

SMILES	pKd [1]	pKd [2]	pKd (human TNFR2 ECD protein)	pIC50 [3]
CCCCC[C@@H]1NC(=O)[C@@H]2CC[C@@H](C2)NC(=O)[C@H]([C@@H](C)c2c[nH]c3c(OC)cccc23)NC(=O)CN(C)C(=O)[C@H](Cc2ccc(C(N)=O)cc2)NC(=O)[C@H](Cc2ccc(C(=O)O)cc2)NC(=O)[C@](C)(CO)NC(=O)[C@H](Cc2c[nH]c3c(Cl)c(F)ccc23)NC(=O)[C@H](Cc2ccncc2)NC(=O)[C@H](CC(N)=O)NC(=O)[C@H]2C[C@H](O)CN2C(=O)[C@H](Cc2c[nH]c3ccccc23)NC(=O)[C@@H]2CNCCN2C(=O)[C@H](Cc2ccncc2)NC1=O [SEQ ID NO. 112] (cyclo([4Pal][Pip(4-aza)]W[dHyp]N[4Pal][X34][αMeS][Phe(4-COOH)][Phe(4-CONH2)][Sar][Trp(βS-Me,7-OMe)][X1][Ahp(2)]))	9.62	10.52	< 6.00	
CCCC[C@@H]1NC(=O)[C@@H]2CC[C@@H](C2)NC(=O)[C@H]([C@@H](C)c2c[nH]c3c(OC)cccc23)NC(=O)CN(C)C(=O)[C@H](Cc2ccc(C(=O)O)cc2)NC(=O)[C@H](Cc2ccc(C(N)=O)cc2)NC(=O)[C@](C)(CO)NC(=O)[C@H](Cc2c[nH]c3c(Cl)cccc23)NC(=O)[C@H](Cc2ccc(C(=O)O)nc2)NC(=O)[C@H](CC(N)=O)NC(=O)[C@H]2C[C@H](O)CN2C(=O)[C@H](Cc2c[nH]c3ncccc23)NC(=O)[C@@H]2CC[C@@H](O)CN2C(=O)[C@H](Cc2ccncc2)NC1=O [SEQ ID NO. 57] (cyclo([4Pal][Pip(5R-OH)][Trp(7-aza)][dHyp]N[X25][Trp(7-Cl)][αMeS][Phe(4-CONH2)][Phe(4-COOH)][Sar][Trp(βS-Me,7-OMe)][X1][Nle]))		10.05	< 6.00	9.10
COc1cccc2c([C@H](C)[C@@H]3NC(=O)CN(C)C(=O)[C@H](Cc4ccc(O)cc4)NC(=O)[C@H](Cc4ccc(C(N)=O)cc4)NC(=O)[C@](C)(CO)NC(=O)[C@H](Cc4c[nH]c5c(Cl)cccc45)NC(=O)[C@H](Cc4ccc(C(=O)O)cc4)NC(=O)[C@H](CC(N)=O)NC(=O)[C@H](CCC(=O)O)N(C)C(=O)[C@H](Cc4c[nH]c5ccccc45)NC(=O)[C@@H]4CNCCN4C(=O)[C@H](Cc4ccncc4)NC(=O)[C@H](CCCC(C)C)NC(=O)CSC[C@@H](C(N)=O)NC3=O)c[nH]c12 [SEQ ID NO. 93] ({CH2CO}-[X14][4Pal][Pip(4-aza)]W[NMeE]N[Phe(4-COOH)][Trp(7-Cl)][αMeS][Phe(4-CONH2)]Y[Sar][Trp(βS-Me,7-OMe)]C-NH2; thioether N-14)		9.11	< 6.00	8.57
CCCC[C@@H]1NC(=O)[C@@H]2CC[C@@H](C2)NC(=O)[C@H]([C@@H](C)c2c[nH]c3c(OC)cccc23)NC(=O)CN(C)C(=O)[C@H](Cc2ccc(O)cc2)NC(=O)[C@H](Cc2ccc(C(=O)O)cc2)NC(=O)[C@](C)(CO)NC(=O)[C@H](Cc2c[nH]c3c(Cl)cccc23)NC(=O)[C@H](Cc2ccncc2)NC(=O)[C@H](CC(N)=O)NC(=O)CN(CC)C(=O)[C@H](Cc2c[nH]c3ccccc23)NC(=O)[C@@H]2CNCCN2C(=O)[C@H](Cc2ccncc2)NC1=O [SEQ ID NO. 94] (cyclo([4Pal][Trp(7-Cl)][αMeS][Phe(4-COOH)]Y[Sar][Trp(βS-Me,7-OMe)][X1][Nle][4Pal][Pip(4-aza)]W[NEtG]N))		10.15	< 6.00	9.10
